# Earlier results as cited in patent publication US20240262808A1, “XANTHINE OXIDASE INHIBITOR” (JIANGSU ATOM BIOSCIENCE AND PHARMACEUTICAL CO., LTD., priority 2021, published 2024).
# Key:
# subjects = conditions: allopurinol used at maximum doses; cited from earlier work
# patients with gout = conditions: patients with gout, per treatment group; cited from earlier work
smiles,measurement,setting,value
"Oc1ncnc2[nH]ncc12 [allopurinol, Allopurinol]",Subjects reaching the treatment endpoint,subjects,less than 50%
same,"Sudden cardiac death, share of group",patients with gout,1.8%
